Measurements: patent US9822131B2, “Certain chemical entities, compositions and methods” (Intellikine LLC, priority 2008, dated 2017)
pEC50, pIC50: −log10 of the molar value.

Experiments:
PI3K δ = target: T1, PI3K δ (Homo sapiens, UniProt O00329); assay: PI3K δ in vitro kinase inhibition assay; assay type: biochemical
T1 construct: purchased Upstate
Description: (§1) IC50 values are measured using either a standard TLC assay for lipid kinase activity (described below) or a high-throughput membrane capture assay. Kinase reactions are performed by preparing a reaction mixture containing kinase, inhibitor (2% DMSO final concentration), buffer (25 mM HEPES, pH 7.4, 10 mM MgCl2), and freshly sonicated phosphatidylinositol (100 μg/ml). Reactions are initiated by the addition of ATP containing 10 μCi of γ-32P-ATP to a final concentration 10 or 100 μM and allowed to proceed for 5 minutes at room temperature. For TLC analysis, reactions are then terminated by the addition of 105 μl 1N HCl followed by 160 μl CHCl3:MeOH (1:1). The biphasic mixture is vortexed, briefly centrifuged, and the organic phase is transferred to a new tube using a gel loading pipette tip precoated with CHCl3. This extract is spotted on TLC plates and developed for 3-4 hours in a 65:35 solution of n-propanol:1M acetic acid. The TLC plates are then dried, exposed to a phosphorimager screen (Storm, Amersham), and quantitated.
(§2) Briefly, the assay is a time resolved FRET assay that indirectly measures PIP3 product formed by the activity of a PI3-K. The kinase reaction is performed in a microtiter plate (e.g., a 384 well microtiter plate). The total reaction volume is approximately 20 ul per well. In the first step, each well receives 2 ul of test compound in 20% dimethylsulphoxide resulting in a 2% DMSO final concentration. Next, approximately 14.5 ul of a kinase/PIP2 mixture (diluted in 1× reaction buffer) is added per well for a final concentration of 0.25-0.3 ug/ml kinase and 10 uM PIP2. […] To start the reaction, 3.5 ul of ATP (diluted in 1× reaction buffer) is added per well for a final concentration of 10 uM ATP. The plate is sealed and incubated for 1 hour at room temperature. The reaction is stopped by adding 5 ul of Stop Solution per well and then 5 μl of Detection Mix is added per well. The plate is sealed, incubated for 1 hour at room temperature, and then read on an appropriate plate reader. Data is analyzed and IC50s are generated using GraphPad Prism 5.

PI3K γ = target: T2, PI3K γ (Homo sapiens, UniProt P48736); assay: PI3K γ in vitro kinase inhibition assay; assay type: biochemical
T2 construct: purchased Sigma
Description: as §1, §2

Balb/c splenic B cells = assay: B cell activation and proliferation assay (Alamar Blue); assay type: cell-based; conditions: Mus musculus, read-out: B cell proliferation EC50
PI3K β = target: T3, PI3K β (Homo sapiens, UniProt P42338); assay: PI3K β in vitro kinase inhibition assay; assay type: biochemical
T3 construct: purchased Upstate
Description: as §1, §2

PI3K α = target: T4, PI3K α (Homo sapiens, UniProt P42336); assay: PI3K α in vitro kinase inhibition assay; assay type: biochemical
T4 construct: purchased Upstate
T4 sequence (P42336 whole entry): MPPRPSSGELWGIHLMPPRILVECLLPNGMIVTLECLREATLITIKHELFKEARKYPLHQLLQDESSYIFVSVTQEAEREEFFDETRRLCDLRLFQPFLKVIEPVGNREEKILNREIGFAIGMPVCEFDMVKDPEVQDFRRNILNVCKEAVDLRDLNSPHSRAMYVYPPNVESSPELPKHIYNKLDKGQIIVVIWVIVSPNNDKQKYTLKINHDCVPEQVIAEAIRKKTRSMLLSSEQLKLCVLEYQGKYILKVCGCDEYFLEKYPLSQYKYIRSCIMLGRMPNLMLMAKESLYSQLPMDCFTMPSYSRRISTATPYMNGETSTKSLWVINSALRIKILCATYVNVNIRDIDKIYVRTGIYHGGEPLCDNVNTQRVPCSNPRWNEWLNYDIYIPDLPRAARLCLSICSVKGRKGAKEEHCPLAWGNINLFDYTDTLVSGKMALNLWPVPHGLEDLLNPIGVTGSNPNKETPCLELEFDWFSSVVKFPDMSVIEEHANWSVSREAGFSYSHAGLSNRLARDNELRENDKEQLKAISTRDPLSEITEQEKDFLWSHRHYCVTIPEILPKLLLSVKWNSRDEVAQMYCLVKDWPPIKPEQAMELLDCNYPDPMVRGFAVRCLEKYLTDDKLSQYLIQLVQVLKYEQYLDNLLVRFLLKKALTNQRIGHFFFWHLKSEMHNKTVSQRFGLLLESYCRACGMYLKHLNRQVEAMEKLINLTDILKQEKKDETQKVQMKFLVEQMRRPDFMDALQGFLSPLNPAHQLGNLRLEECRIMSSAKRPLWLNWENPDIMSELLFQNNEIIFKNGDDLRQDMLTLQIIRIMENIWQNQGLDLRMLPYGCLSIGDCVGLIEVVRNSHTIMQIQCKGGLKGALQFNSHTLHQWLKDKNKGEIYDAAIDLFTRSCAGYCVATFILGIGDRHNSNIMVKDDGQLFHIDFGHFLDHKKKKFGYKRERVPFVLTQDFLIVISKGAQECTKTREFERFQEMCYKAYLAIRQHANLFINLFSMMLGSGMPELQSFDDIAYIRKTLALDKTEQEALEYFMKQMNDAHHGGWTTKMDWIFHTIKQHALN
T4 sequence (P27986 whole entry partner): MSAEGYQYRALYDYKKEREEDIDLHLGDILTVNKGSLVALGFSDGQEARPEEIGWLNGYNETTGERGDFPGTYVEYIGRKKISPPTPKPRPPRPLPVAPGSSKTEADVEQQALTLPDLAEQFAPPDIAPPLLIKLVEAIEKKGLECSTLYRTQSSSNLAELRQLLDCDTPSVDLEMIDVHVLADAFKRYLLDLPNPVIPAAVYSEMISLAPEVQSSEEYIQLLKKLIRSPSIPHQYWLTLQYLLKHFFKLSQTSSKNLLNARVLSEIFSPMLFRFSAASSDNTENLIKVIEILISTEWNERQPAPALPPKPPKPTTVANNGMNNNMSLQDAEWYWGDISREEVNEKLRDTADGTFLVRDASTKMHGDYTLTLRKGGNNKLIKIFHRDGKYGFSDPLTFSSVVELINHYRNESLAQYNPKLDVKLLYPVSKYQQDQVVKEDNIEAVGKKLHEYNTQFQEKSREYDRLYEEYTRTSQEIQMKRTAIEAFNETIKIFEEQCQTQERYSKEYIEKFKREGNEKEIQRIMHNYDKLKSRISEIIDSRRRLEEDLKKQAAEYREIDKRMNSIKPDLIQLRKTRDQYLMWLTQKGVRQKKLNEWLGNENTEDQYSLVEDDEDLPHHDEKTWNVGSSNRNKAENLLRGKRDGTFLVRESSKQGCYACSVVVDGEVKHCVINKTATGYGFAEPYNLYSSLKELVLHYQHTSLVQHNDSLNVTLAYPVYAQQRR
Description: as §1, §2

T2 sequence (P48736 whole entry): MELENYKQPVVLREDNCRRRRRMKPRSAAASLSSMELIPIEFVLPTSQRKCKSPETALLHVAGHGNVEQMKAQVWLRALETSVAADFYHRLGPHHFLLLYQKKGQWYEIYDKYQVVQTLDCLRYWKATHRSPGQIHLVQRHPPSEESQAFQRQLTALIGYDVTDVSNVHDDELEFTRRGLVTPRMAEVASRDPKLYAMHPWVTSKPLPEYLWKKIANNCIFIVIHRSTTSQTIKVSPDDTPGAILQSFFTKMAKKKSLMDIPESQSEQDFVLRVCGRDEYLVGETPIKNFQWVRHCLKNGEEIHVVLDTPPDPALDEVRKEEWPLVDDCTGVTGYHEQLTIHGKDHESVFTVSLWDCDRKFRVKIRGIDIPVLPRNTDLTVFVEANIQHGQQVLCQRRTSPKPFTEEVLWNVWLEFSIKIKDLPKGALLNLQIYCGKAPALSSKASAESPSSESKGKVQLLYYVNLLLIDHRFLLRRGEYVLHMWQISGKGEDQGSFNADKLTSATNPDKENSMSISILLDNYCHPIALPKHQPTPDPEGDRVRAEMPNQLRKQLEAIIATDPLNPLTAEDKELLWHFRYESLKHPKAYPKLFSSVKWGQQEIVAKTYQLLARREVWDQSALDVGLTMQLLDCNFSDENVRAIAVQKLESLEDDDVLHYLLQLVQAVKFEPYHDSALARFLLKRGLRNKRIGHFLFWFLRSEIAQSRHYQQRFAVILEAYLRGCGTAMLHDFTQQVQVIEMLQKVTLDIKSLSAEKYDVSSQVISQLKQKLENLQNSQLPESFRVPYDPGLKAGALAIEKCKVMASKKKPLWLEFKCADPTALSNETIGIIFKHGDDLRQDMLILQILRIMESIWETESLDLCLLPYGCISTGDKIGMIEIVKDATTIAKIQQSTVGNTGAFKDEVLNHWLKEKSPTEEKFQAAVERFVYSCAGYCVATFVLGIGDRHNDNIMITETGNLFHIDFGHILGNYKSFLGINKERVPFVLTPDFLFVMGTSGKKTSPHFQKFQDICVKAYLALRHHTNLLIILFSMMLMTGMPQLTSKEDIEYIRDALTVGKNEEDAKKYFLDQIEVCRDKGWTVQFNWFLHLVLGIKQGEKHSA
T3 sequence (P42338 whole entry): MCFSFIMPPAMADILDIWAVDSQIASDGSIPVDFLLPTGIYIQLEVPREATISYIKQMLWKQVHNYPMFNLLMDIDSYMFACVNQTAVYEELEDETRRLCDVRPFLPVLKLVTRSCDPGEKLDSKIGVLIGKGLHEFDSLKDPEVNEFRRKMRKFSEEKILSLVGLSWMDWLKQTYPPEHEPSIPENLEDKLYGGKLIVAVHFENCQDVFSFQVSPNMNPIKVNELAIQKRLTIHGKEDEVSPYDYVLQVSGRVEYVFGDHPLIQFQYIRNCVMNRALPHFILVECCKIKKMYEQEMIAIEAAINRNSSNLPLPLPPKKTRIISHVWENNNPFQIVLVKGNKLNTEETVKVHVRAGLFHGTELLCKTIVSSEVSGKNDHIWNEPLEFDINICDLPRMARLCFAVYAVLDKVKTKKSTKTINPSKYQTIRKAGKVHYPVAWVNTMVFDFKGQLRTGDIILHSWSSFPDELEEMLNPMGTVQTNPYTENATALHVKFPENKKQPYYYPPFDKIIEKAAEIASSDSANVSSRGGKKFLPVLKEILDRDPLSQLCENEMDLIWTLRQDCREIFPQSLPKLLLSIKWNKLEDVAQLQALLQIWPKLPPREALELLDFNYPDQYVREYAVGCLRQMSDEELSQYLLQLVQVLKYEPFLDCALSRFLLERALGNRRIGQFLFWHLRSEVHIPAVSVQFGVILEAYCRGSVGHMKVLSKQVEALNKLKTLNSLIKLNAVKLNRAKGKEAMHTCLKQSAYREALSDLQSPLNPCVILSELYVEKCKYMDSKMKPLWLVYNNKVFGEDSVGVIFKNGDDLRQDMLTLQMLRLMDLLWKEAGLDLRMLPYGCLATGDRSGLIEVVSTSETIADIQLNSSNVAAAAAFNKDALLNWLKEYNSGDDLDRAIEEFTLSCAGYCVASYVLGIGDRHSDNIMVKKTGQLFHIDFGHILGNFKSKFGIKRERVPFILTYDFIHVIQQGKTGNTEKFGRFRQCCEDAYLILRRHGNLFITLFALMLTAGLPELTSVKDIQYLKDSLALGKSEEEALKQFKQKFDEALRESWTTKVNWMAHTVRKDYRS
T3 sequence (P27986 whole entry partner): as the sequence (P27986 whole entry partner) above
T1 sequence (O00329 whole entry): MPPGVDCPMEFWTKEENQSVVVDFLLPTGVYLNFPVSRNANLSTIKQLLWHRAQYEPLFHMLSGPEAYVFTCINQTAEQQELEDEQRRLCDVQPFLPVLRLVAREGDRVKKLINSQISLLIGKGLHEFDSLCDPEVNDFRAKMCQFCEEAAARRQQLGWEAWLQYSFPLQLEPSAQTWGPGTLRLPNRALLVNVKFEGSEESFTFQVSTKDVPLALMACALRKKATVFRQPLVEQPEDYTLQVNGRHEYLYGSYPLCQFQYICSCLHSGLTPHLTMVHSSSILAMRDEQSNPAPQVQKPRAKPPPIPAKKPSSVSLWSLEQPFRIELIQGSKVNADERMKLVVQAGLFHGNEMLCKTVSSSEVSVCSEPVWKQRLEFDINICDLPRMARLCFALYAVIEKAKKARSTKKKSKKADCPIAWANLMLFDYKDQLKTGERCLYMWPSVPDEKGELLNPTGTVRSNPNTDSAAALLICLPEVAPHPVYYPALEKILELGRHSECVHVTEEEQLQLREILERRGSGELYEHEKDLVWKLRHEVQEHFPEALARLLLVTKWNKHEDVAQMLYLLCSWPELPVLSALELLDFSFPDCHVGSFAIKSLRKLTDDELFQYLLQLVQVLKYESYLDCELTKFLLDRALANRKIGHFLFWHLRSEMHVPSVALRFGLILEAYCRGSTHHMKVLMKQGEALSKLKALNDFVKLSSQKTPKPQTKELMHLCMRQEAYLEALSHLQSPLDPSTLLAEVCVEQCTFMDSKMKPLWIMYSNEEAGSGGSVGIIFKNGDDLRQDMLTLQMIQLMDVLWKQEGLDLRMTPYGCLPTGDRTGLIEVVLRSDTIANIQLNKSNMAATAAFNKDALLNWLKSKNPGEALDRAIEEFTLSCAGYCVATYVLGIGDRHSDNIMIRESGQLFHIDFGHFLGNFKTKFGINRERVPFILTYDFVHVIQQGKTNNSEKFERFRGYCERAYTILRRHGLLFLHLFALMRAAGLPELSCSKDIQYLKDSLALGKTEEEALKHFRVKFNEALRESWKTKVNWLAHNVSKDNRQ
T1 sequence (P27986 whole entry partner): as the sequence (P27986 whole entry partner) above

Row | pIC50 (PI3K δ) | pIC50 (PI3K γ) | pIC50 (PI3K β) | pIC50 (PI3K α) | SMILES | pEC50 (Balb/c splenic B cells)
1 | > 6.00 | < 5.00 | < 5.00 | < 5.00 | Cc1ccccc1-n1c(Cn2nc(-c3cc(O)cc(F)c3)c3c(N)ncnc32)nc2nccc(C)c2c1=O [Compound 200] | > 5.00
2 | > 6.00 | < 5.00 | < 5.00 | < 5.00 | Cc1ccccc1-n1c(Cn2nc(C#CC3CC3)c3c(N)ncnc32)nc2nccc(C)c2c1=O [Compound 202] | > 5.00
3 | > 7.00 | > 5.00 | < 5.00 | < 5.00 | Cc1ccccc1-n1c(Cn2nc(Cl)c3c(N)ncnc32)nc2nccc(C)c2c1=O [Compound 203] | > 6.00
4 | > 5.00 | < 5.00 | < 5.00 | < 5.00 | Cc1ccnc2nc(Cn3nc(C#CC4CC4)c4c(N)ncnc43)n(-c3ccccc3Cl)c(=O)c12 [Compound 208] | > 5.00
5 | > 5.00 | < 5.00 | < 5.00 | < 5.00 | Cc1ccccc1-n1c(Cn2nc(-c3cccc(O)c3)c3c(N)ncnc32)nc2c(C)nn(C)c2c1=O [Compound 217] | > 5.00
6 | > 7.00 | > 6.00 | < 5.00 | < 5.00 | Cc1ccccc1-n1c(Cn2nc(I)c3c(N)ncnc32)nc2scc(C)c2c1=O [Compound 242] | > 7.00
7 | > 7.00 | > 6.00 | < 5.00 | < 5.00 | Cc1ccccc1-n1c(Cn2nc(Cl)c3c(N)ncnc32)nc2scc(C)c2c1=O [Compound 249] | > 7.00
8 | > 7.00 | > 7.00 | < 5.00 | < 5.00 | Cc1csc2nc(Cn3nc(-c4cc(O)cc(F)c4)c4c(N)ncnc43)n(-c3ccccc3F)c(=O)c12 [Compound 258] | > 7.00
9 | > 7.00 | > 6.00 | < 5.00 | < 5.00 | Cc1csc2nc(Cn3nc(-c4ccc(F)c(O)c4)c4c(N)ncnc43)n(-c3ccccc3F)c(=O)c12 [Compound 259] | > 7.00
10 | > 7.00 | > 7.00 | < 5.00 | < 5.00 | Cc1csc2nc(Cn3nc(C#C[C@@H](C)O)c4c(N)ncnc43)n(-c3ccccc3F)c(=O)c12 [Compound 261] | > 6.00
11 | > 7.00 | > 7.00 | > 5.00 | < 5.00 | Cc1ccccc1-n1c(Cn2nc(-c3ccc(O)c(Cl)c3)c3c(N)ncnc32)nc2scc(C)c2c1=O [Compound 269] | –
12 | > 7.00 | > 6.00 | < 5.00 | < 5.00 | Cc1csc2nc(Cn3nc(Cl)c4c(N)ncnc43)n(-c3ccccc3C(F)(F)F)c(=O)c12 [Compound 280] | > 7.00
13 | > 5.00 | < 5.00 | < 5.00 | < 5.00 | Cc1cc2c(=O)n(-c3ccccc3C)c(Cn3nc(Br)c4c(N)ncnc43)nc2s1 [Compound 285] | –

The remaining lines, values behind:

Row | SMILES | pIC50 (PI3K δ) | pIC50 (PI3K γ) | pIC50 (PI3K β) | pIC50 (PI3K α) | pEC50 (Balb/c splenic B cells)
14 | Cc1ccccc1-n1c(Cn2nc(I)c3c(N)ncnc32)nc2nccc(C)c2c1=O [Compound 199] | > 6.00 | > 5.00 | < 5.00 | < 5.00 | > 7.00
15 | Cc1ccccc1-n1c(Cn2nc(Br)c3c(N)ncnc32)nc2nccc(C)c2c1=O [Compound 204] | > 7.00 | < 5.00 | < 5.00 | < 5.00 | > 6.00
16 | Cc1nn(Cc2nc3nccc(C)c3c(=O)n2-c2ccccc2F)c2ncnc(N)c12 [Compound 210] | > 5.00 | < 5.00 | < 5.00 | < 5.00 | > 5.00
17 | Cc1ccccc1N1C(=O)C2C(C=NN2C)N=C1Cn1nc(-c2cc(O)cc(F)c2)c2c(N)ncnc21 (centres unmarked) [Compound 221] | > 7.00 | < 5.00 | < 5.00 | < 5.00 | > 6.00
18 | Cc1ccccc1-n1c(Cn2nc(C#CC3CC3)c3c(N)ncnc32)cc2nccc(C)c2c1=O [Compound 225] | > 6.00 | < 5.00 | < 5.00 | < 5.00 | > 6.00
19 | Cc1ccccc1-n1c(Cn2nc(-c3ccc(O)c(F)c3)c3c(N)ncnc32)cc2nccc(C)c2c1=O [Compound 226] | > 7.00 | > 6.00 | < 5.00 | < 5.00 | > 6.00
20 | Cc1ccnc2cc(Cn3nc(-c4cc(O)cc(F)c4)c4c(N)ncnc43)n(-c3ccccc3F)c(=O)c12 [Compound 231] | > 7.00 | > 6.00 | < 5.00 | < 5.00 | > 7.00
21 | Cc1ccccc1-n1c(Cn2nc(-c3cccc(O)c3)c3c(N)ncnc32)nc2snc(C)c2c1=O [Compound 241] | > 6.00 | > 5.00 | < 5.00 | < 5.00 | –
22 | Cc1ccccc1-n1c(Cn2nc(C)c3c(N)ncnc32)nc2scc(C)c2c1=O [Compound 246] | > 7.00 | > 7.00 | < 5.00 | < 5.00 | > 6.00
23 | Cc1ccccc1-n1c(Cn2nc(Br)c3c(N)ncnc32)nc2scc(C)c2c1=O [Compound 250] | > 7.00 | > 6.00 | < 5.00 | < 5.00 | > 7.00
24 | Cc1csc2nc(Cn3nc(-c4ccc(O)cc4)c4c(N)ncnc43)n(-c3ccccc3F)c(=O)c12 [Compound 263] | > 5.00 | > 5.00 | < 5.00 | < 5.00 | > 5.00
25 | Cc1cccnc1-n1c(Cn2nc(Cl)c3c(N)ncnc32)nc2scc(C)c2c1=O [Compound 270] | > 6.00 | > 5.00 | < 5.00 | < 5.00 | –
26 | COc1ccccc1-n1c(Cn2nc(Br)c3c(N)ncnc32)nc2scc(C)c2c1=O [Compound 274] | > 7.00 | > 6.00 | < 5.00 | < 5.00 | –
27 | COc1ccccc1-n1c(Cn2nc(-c3cccc(O)c3)c3c(N)ncnc32)nc2scc(C)c2c1=O [Compound 275] | > 7.00 | > 6.00 | > 5.00 | < 5.00 | > 7.00
28 | Cc1csc2nc(Cn3nc(-c4cccc(O)c4)c4c(N)ncnc43)n(-c3ccccc3C(F)(F)F)c(=O)c12 [Compound 281] | > 7.00 | > 7.00 | > 5.00 | < 5.00 | > 7.00
29 | Cc1csc2nc(Cn3nc(C#C[C@@H](C)O)c4c(N)ncnc43)n(-c3ncccc3C(F)(F)F)c(=O)c12 [Compound 282] | > 7.00 | > 5.00 | > 5.00 | < 5.00 | > 7.00
30 | Cc1cc2c(=O)n(-c3ccccc3C)c(Cn3nc(-c4cccc(O)c4)c4c(N)ncnc43)nc2s1 [Compound 294] | > 5.00 | < 5.00 | < 5.00 | < 5.00 | –
31 | Cc1ccccc1-n1c(Cn2nc(-c3cccc(O)c3)c3c(N)ncnc32)nc2sc(C)c(C)c2c1=O [Compound 299] | > 6.00 | < 5.00 | < 5.00 | < 5.00 | –
32 | Cc1ccccc1-n1c(Cn2nc(Br)c3c(N)ncnc32)nc2sc(C)c(C)c2c1=O [Compound 301] | > 7.00 | < 5.00 | < 5.00 | < 5.00 | –
